Laboratory results published in patent US20070006551A1, “Method and apparatus for sterilizing and filling containers” (priority 2005, published 2007).
Where “and” joins values, the source holds several entries; their conditions need not be identical. Identical values can stand only once. Like-named read-outs stand apart in the source and are kept apart here.

Key:
[1] = test system: B. subtilis var. globigii (ATCC. 9372)
Experimental: (§1) The experiments were designed to identify the conditions optimal for polymer sterilization and also explore the boundary areas to determine the conditions limiting the efficacy of the treatment. Each polymer strip was inoculated by drop spotting approximately 100 micro-liters and coating the surface by swabbing the surface of the polyethylene strip. The culture was allowed to dry before sterilization. Each strip of polyethylene was treated by vigorously agitating the strip in the appropriate treatment solutions. Each treated polymer strip was then treated with catalase to inactivate residual peroxide, swabbed and plated using TGE incubated at 35° C. for two days.
Five replicate polymer strips were used for each of the two methods of the present invention. A log measurement value is provided below each of the non-log values. The first method uses hydrogen peroxide first and then an alkaline solution of sodium hydroxide. The second method uses an alkaline solution of sodium hydroxide first and then hydrogen peroxide. The sterilization was conducted at 50° C.
In Table Three, a solution of 0.1 Normal potassium hydroxide (KOH) was utilized with a solution of 3% hydrogen peroxide at a temperature of 35° C. for 30 seconds.

[2] = test system: B. subtilis var. globigii (ATCC. 9372); settings: 50° C.; for CFU/Swab / logCFU/Swab / Average (logCFU/Swab) / Log reduction: Table Two; for CFU/Swab / logCFU/Swab: contact times as in the label, one value per replicate; for Average (logCFU/Swab): mean of replicates; for Log reduction: versus inoculated untreated control (6.66); for bacteriocidal effect (in words): Table Two conditions
Experimental: as §1
A log measurement value is provided below each of the non-log values. The sterilization was conducted at 50° C.

[3] = Table Three, 35° C. for 30 seconds, one value per replicate

Structure (SMILES) | CFU/Swab [2] | logCFU/Swab [2] | Average (logCFU/Swab) [2] | Log reduction [2] | bacteriocidal effect (in words) [2] | also measured
[Na+].[OH-] [1M NaOH Control, sodium hydroxide] | – | – | – | – | – | CFU/Swab ([1]; Table One, 50° C., survivors after treatment, inoculum 10^6, one value per replicate strip): 5,700 CFU/Swab and 210 CFU/Swab; logCFU/Swab ([1]; Table One, 50° C., survivors after treatment, one value per replicate strip): 3.76 logCFU/Swab and 2.32 logCFU/Swab
OO [50° C. 30 s 35% H2O2 10 s catalase, hydrogen peroxide] | 570 CFU/Swab and 20 CFU/Swab and 270 CFU/Swab and 2700 CFU/Swab and 40 CFU/Swab | 1.60 logCFU/Swab and 2.76 logCFU/Swab and 1.30 logCFU/Swab and 2.43 logCFU/Swab and 3.43 logCFU/Swab | 2.30 | 4.35 | – | rate of inactivation ([2]; thirty second treatment): 1.45 log per 10 seconds of treatment; Log reduction ([2]; listed as thirty second hydrogen peroxide treatment (column 4)): 4.35
OO [50° C. 30 s 3.5% H2O2 10 s catalase, hydrogen peroxide] | 4,200,000 CFU/Swab and 4,000,000 CFU/Swab and 3,000,000 CFU/Swab and 5,000,000 CFU/Swab and 1,600,000 CFU/Swab | 6.20 logCFU/Swab and 6.62 logCFU/Swab and 6.60 logCFU/Swab and 6.48 logCFU/Swab and 6.70 logCFU/Swab | 6.52 | 0.14 | no effect | –
[Na+].[OH-] [50° C. 10 s 0.25M NaOH Control, sodium hydroxide] | 3,800,000 CFU/Swab and 7,900,000 CFU/Swab and 5,400,000 CFU/Swab and 6,300,000 CFU/Swab | 6.80 logCFU/Swab and 6.58 logCFU/Swab and 6.90 logCFU/Swab and 6.73 logCFU/Swab | 6.75 | – | no bacteriocidal effect | –
OO [H2O2 Control, hydrogen peroxide] | – | – | – | – | – | CFU/Swab [1, 3]: 5,200,000 CFU/Swab; logCFU/Swab [1, 3]: 6.72 logCFU/Swab
